Where two headings read alike, the source gives them in different places.
What was measured:
GPR158 = target: T1, GPR158 (Homo sapiens, UniProt Q5T848); test: Isothermal Titration calorimetry (ITC) with purified GPR158; format: binding; conditions: purified GPR158-AC2, 23 °C
T1 construct: GPR158 AC2 (1-775) was expressed and purified; Flag; made in house; host or cells: HEK293 GnTI- (BacMam virus)
T1 sequence (Q5T848 24-775): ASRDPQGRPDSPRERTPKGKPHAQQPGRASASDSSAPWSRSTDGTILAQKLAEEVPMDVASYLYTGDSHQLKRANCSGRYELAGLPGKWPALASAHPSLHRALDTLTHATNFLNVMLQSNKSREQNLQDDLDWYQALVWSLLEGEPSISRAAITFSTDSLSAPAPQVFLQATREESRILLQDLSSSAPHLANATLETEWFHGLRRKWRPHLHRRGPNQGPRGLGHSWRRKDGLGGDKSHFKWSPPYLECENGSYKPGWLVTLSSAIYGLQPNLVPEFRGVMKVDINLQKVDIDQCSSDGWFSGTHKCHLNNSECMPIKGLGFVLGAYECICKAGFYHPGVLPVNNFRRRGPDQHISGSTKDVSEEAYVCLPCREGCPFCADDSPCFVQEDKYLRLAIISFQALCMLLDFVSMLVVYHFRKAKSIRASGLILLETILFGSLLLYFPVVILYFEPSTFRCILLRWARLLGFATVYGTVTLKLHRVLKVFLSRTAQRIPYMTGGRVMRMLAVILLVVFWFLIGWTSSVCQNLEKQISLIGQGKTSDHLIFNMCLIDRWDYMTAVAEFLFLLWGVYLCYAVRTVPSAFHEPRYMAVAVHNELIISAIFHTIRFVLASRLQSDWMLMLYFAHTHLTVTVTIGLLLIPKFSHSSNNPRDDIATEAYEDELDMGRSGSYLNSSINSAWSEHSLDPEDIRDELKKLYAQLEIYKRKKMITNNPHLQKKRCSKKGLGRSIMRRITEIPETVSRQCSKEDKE
Description: FIGS. 9A-9H. Direct interaction of glycine with GPR158 A) Schematics of assay design for detecting glycine binding to GPR158 by flow cytometry. Cells transfected with GPR158 are incubated with FITC-glycine and fluorescence labeling of cells is detected by flow cytometry. B) Representative flow cytometry histogram showing distribution of cellular populations after sorting. C) Quantification of FITC-glycine binding detected in flow cytometry binding experiments. The median of fluorescence (MFI) is quantified and plotted. Error bars are s.e.m. values, N=3, **p<0.01, ****p<0.0001, two-way ANOVA. D) Schematics of the radioligand binding assay. E) Quantification of ^3H-glycine binding to membrane expressing GPR158. Count Per minute (CPM) are measured and plotted. Data shown mean of 4 independent experiments error bars are s.e.m. values, n=4. […] Data shown mean of 4 independent experiments error bars are s.e.m. values, n=4. G) Schematics of the assay design detecting glycine binding to GPR158 by Isothermal Titration calorimetry (ITC) with purified protein. H) Representative ITC binding profile showing glycine binding to GPR158. Control (thick line), GPR158 (thin line) I) Quantification of binding determined by fitting the integrated isotherm to an independent binding model.
FIGS. 10A-10D. Binding of Glycine to GPR158 in ITC experiments. […]

GlyRs = conditions: cited from earlier work

Kd (GPR158; mean of 4 experimental runs, independent binding model, read-out: KD (ITC, mean)): 7.76 ± 3.66 µM
Kd (GPR158; range across experiments, read-out: binding constants (KD) across experiments): 2 to 16 µM
Structure (SMILES): NCC(=O)O [glycine]
affinity of GlyRs for glycine relative to mGlyR (GlyRs): an order of magnitude lower affinity

Reference: patent US20260376293A1, “METHODS FOR STUDYING GPR158 PHARMACOLOGY AND IDENTIFICATION OF ITS LIGANDS” (UNIVERSITY OF FLORIDA RESEARCH FOUNDATION, INCORPORATED, priority 2022, published 2026)
